Measured values: patent US20220289794A1, “SYNTHETIC ANTIMICROBIAL PEPTIDES” (priority 2019, published 2022)
Values after ≈ are worked out from the molar mass of the structure shown. Read-outs that look alike come from different tables or passages of the source.

Columns and labels:
[1] = system: Pseudomonas aeruginosa (ATCC 27883); experiment: microbe, parasite or virus in culture; conditions: ATCC27883, read-out: PSA (ATCC 27883 MIC)
[2] = system: Methicillin-resistant Staphylococcus aureus MRSA (ATCC BAA-1556); experiment: microbe, parasite or virus in culture; conditions: ATCCBAA1556|MRSA, 24 h
[3] = system: Escherichia coli (ATCC 25922); experiment: microbe, parasite or virus in culture; conditions: ATCC25922, read-out: E. coli (ATCC 25922) MIC
[4] = system: Streptococcus pneumoniae ATCC 49619; experiment: microbe, parasite or virus in culture; conditions: ATCC49619
[5] = system: Escherichia coli (E. Coli, ATCC 25922); conditions: Escherichia coli (ATCC 25922); antibiotic alone
[6] = system: Streptococcus pneumoniae ATCC 51938; experiment: microbe, parasite or virus in culture; conditions: ATCC51938
[7] = system: Staphylococcus aureus ATCC 29213; experiment: microbe, parasite or virus in culture; conditions: ATCC29213
[8] = system: Bacillus cereus (ATCC-13061); experiment: microbe, parasite or virus in culture; conditions: ATCC13061
[9] = system: Escherichia coli (E. Coli, ATCC 25922); experiment: microbe, parasite or virus in culture; conditions: ATCC25922, 24 h
[10] = system: Enterococcus faecalis ATCC 29212; experiment: microbe, parasite or virus in culture; conditions: ATCC29212
[11] = system: Enterococcus faecium ATCC 27270; experiment: microbe, parasite or virus in culture; conditions: ATCC27270
E. coli = experiment: microbe, parasite or virus in culture; conditions: Escherichia coli, ATCC25922, read-out: MIC Escherichia coli (ATCC 25922)
MRSA = experiment: microbe, parasite or virus in culture; conditions: Staphylococcus aureus
[12] = system: Pseudomonas aeruginosa (PSA, ATCC 27883); experiment: microbe, parasite or virus in culture; conditions: ATCC27883, 24 h
[13] = system: Bacillus subtilis (ATCC-6633); experiment: microbe, parasite or virus in culture; conditions: ATCC6633
[14] = system: Enterococcus faecium ATCC 700221; experiment: microbe, parasite or virus in culture; conditions: ATCC700221
PSA = experiment: microbe, parasite or virus in culture; conditions: Pseudomonas aeruginosa, ATCC27883, read-out: MIC Pseudomonas aeruginosa (ATCC 27883)
KPC = experiment: microbe, parasite or virus in culture; conditions: Klebsiella pneumoniae, ATCCBAA1705, read-out: MIC Klebsiella pneumoniae (ATCC BAA-1705)
[15] = system: Enterococcus faecalis ATCC 51575; experiment: microbe, parasite or virus in culture; conditions: ATCC51575
[16] = system: Pseudomonas aeruginosa (PSA, ATCC 27883); experiment: Synergy checkerboard assay (FIC index); assay type: cell-based; conditions: Pseudomonas aeruginosa (ATCC 27883), antibiotic alone

SMILES: C[C@@H](O)[C@H]1C(=O)N2C(C(=O)O)=C(S[C@@H]3CN[C@H](C(=O)N(C)C)C3)[C@H](C)[C@H]12 [Meropenem]
- MIC [1]: 1 µg/mL (≈ 2.61 µM)
- MIC ([2]; read-out: MRSA (ATCC BAA-1556) MIC, Table 29, [R6W4] (IFX-318), antibiotics alone and PHY-MIX (1:1 w/w)): 2 µg/mL (≈ 5.22 µM)
- MIC ([2]; read-out: MRSA (ATCC BAA-1556) MIC, Table 30, [R5W4K] (IFX-315), antibiotics alone and PHY-MIX (1:1 w/w)): 2 µg/mL (≈ 5.22 µM)
- MIC ([2]; read-out: MRSA (ATCC BAA-1556) MIC, Table 31, [R5W4] (IFX-301), antibiotics alone and PHY-MIX (1:1 w/w)): 2 µg/mL (≈ 5.22 µM)
- MIC ([2]; read-out: MRSA (ATCC BAA-1556) MIC, Table 32, meropenem, IFX-315, their conjugate and Phy-Mix 1:1): 2 µg/mL (≈ 5.22 µM)
- MIC [3]: 1 µg/mL (≈ 2.61 µM)
- MIC [4]: 0.25 µg/mL (≈ 0.652 µM)
- MIC of antibiotic [5]: 1 µg/mL
- MIC [6]: 0.25 µg/mL (≈ 0.652 µM)
- MIC [7]: 0.25 µg/mL (≈ 0.652 µM)
- MIC [8]: 4 µg/mL (≈ 10.4 µM)
- MIC ([9]; read-out: Escherichia coli (ATCC 25922) MIC, Table 29, [R6W4] (IFX-318), antibiotics alone and PHY-MIX (1:1 w/w)): 1 µg/mL (≈ 2.61 µM)
- MIC ([9]; read-out: Escherichia coli (ATCC 25922) MIC, Table 30, [R5W4K] (IFX-315), antibiotics alone and PHY-MIX (1:1 w/w)): 1 µg/mL (≈ 2.61 µM)
- MIC ([9]; read-out: Escherichia coli (ATCC 25922) MIC, Table 31, [R5W4] (IFX-301), antibiotics alone and PHY-MIX (1:1 w/w)): 1 µg/mL (≈ 2.61 µM)
- MIC ([9]; read-out: Escherichia coli (ATCC 25922) MIC, Table 32, meropenem, IFX-315, their conjugate and Phy-Mix 1:1): 1 µg/mL (≈ 2.61 µM)
- MIC [10]: 2 µg/mL (≈ 5.22 µM)
- MIC [11]: 0.5 µg/mL (≈ 1.3 µM)
- MIC (E. coli): 0.125 µg/mL (≈ 0.326 µM)
- MIC (MRSA; ATCCBAA1556 / MRSA, read-out: MIC MRSA (ATCC BAA-1556)): 4 µg/mL (≈ 10.4 µM)
- MIC (MRSA; MRSA): 2 µg/mL (≈ 5.22 µM)
- MIC ([12]; read-out: Pseudomonas aeruginosa (ATCC 27883) MIC, Table 28, IFX-031, antibiotics alone and PHY-MIX (1:1 w/w)): 1 µg/mL (≈ 2.61 µM)
- MIC ([12]; read-out: Pseudomonas aeruginosa (ATCC 27883) MIC, Table 29, [R6W4] (IFX-318), antibiotics alone and PHY-MIX (1:1 w/w)): 1 µg/mL (≈ 2.61 µM)
- MIC ([12]; read-out: Pseudomonas aeruginosa (ATCC 27883) MIC, Table 30, [R5W4K] (IFX-315), antibiotics alone and PHY-MIX (1:1 w/w)): 1 µg/mL (≈ 2.61 µM)
- MIC ([12]; read-out: Pseudomonas aeruginosa (ATCC 27883) MIC, Table 31, [R5W4] (IFX-301), antibiotics alone and PHY-MIX (1:1 w/w)): 1 µg/mL (≈ 2.61 µM)
- MIC ([12]; read-out: Pseudomonas aeruginosa (ATCC 27883) MIC, Table 32, meropenem, IFX-315, their conjugate and Phy-Mix 1:1): 1 µg/mL (≈ 2.61 µM)
- MIC [13]: 0.25 µg/mL (≈ 0.652 µM)
- MIC [14]: 64 µg/mL (≈ 167 µM)
- MIC (PSA): 0.5 µg/mL (≈ 1.3 µM)
- MIC (KPC): 8 µg/mL (≈ 20.9 µM)
- MIC [15]: 8 µg/mL (≈ 20.9 µM)
- MIC of antibiotic [16]: 1 µg/mL
- MIC of antibiotic ([16]; Table 26): 1 µg/mL
- antibiotic MIC ([16]; Table 27): 1 µg/mL
